Source: ChEMBL document CHEMBL3351649, “A new goniothalamin N-acylated aza-derivative strongly downregulates mediators of signaling transduction associated with pancreatic cancer aggressiveness” (Eur J Med Chem, 2014)
Active and inactive are the calls of the source. The rule behind the calls is not given here.

Experiments:
[1] = (§1) Cytotoxicity against human PANC1 cells assessed as reduction in cell viability after 24 hrs by MTT reduction assay; type: functional, cell-based; conditions: PANC-1, 24 h
[2] = Chemical reactivity under non-physiological condition at 25 mM using gluthatione as thiol nucleophile assessed as conjugate addition of GSH to compound after 24 hrs by 1H NMR spectroscopy; type: physicochemical; conditions: 25000 µM
[3] = Antiproliferative activity against human PANC1 cells assessed as reduction in colonies after 15 days by colony assay; type: functional, cell-based; conditions: PANC-1, 360 h
PANC-1 [4] = test: Induction of apoptosis in human PANC1 cells assessed as increase in BAX/BCL-2 ratio at 30 to 60 uM after 24 hrs by Western blot analysis; type: functional, cell-based
[5] = Selectivity ratio of IC50 for human HaCaT cells to IC50 for human PANC1 cells; type: ADME, cell-based; conditions: HaCaT cells versus PANC1 cells, read-out: Ratio IC50
[6] = Antiproliferative activity against human PANC1 cells assessed as reduction in colonies at 15 uM after 15 days by colony assay; type: functional, PANC-1; parameters: scale not given: the % may be the effect or the level left
PANC-1 [7] = test: Reduction in AXL protein level in human PANC1 cells at 30 to 60 uM after 24 hrs by Western blot analysis; type: functional, cell-based
PANC-1 [8] = test: Cytoprotective activity in 1 hr GSH-pretreated human PANC1 cells assessed as increase in cell viability at 10 to 100 uM after 24 hrs by MTT reduction assay; type: functional, cell-based
[9] = Antiproliferative activity against human PANC1 cells assessed as reduction in colonies at 30 uM after 15 days by colony assay; type: functional, PANC-1; parameters: scale not given: the % may be the effect or the level left
PANC-1 [10] = test: Reduction in c-Myc protein level in human PANC1 cells at 30 to 60 uM after 24 hrs by Western blot analysis; type: functional, cell-based
PANC-1 [11] = test: Reduction in cyclin D1 protein level in human PANC1 cells at 30 to 60 uM after 24 hrs by Western blot analysis; type: functional, cell-based
PANC-1 [12] = test: Induction of intracellular ROS production in human PANC1 cells at 1.5 to 3 uM after 1 hr using DCFH-DA by flow cytometry; type: functional, cell-based
PANC-1 [13] = test: as §1; type: functional, cell-based
PANC-1 [14] = test: Induction of apoptosis in human PANC1 cells assessed as reduction in pro-caspase-3 level at 30 to 60 uM after 24 hrs by Western blot analysis; type: functional, cell-based
[15] = biological target: Tyrosine-protein kinase receptor UFO (Homo sapiens) (UniProt P30530); test: Effect on AXL in human PANC1 cells assessed as increase in p-ERK at Thr202/Tyr 204 protein level at 30 to 60 uM after 24 hrs by Western blot analysis; type: cell-based; conditions: PANC-1
Chain of Tyrosine-protein kinase receptor UFO (Homo sapiens) (P30530 whole entry): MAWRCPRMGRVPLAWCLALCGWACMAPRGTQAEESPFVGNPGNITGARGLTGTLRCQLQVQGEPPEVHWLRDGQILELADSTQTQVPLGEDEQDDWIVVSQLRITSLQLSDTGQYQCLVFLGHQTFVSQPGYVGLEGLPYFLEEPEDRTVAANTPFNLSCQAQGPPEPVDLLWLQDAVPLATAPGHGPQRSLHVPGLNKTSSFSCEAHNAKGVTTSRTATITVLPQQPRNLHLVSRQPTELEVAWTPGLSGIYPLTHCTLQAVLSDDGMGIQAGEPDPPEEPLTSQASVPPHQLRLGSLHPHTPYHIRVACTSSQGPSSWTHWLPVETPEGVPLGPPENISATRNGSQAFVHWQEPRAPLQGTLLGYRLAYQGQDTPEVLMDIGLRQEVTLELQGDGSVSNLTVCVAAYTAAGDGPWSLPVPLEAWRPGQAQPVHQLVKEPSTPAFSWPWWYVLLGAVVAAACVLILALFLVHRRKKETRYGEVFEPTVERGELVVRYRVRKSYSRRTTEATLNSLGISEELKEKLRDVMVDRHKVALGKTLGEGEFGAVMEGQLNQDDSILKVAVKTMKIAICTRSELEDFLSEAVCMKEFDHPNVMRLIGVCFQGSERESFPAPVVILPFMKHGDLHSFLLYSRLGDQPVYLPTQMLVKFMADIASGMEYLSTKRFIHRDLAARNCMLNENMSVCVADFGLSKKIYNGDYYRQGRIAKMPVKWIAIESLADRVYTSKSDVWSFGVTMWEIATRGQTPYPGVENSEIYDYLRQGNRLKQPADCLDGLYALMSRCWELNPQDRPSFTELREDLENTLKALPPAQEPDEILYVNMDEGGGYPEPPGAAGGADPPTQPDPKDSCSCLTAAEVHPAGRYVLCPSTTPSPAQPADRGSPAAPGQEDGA

HaCaT = test: Cytotoxicity against human HaCaT cells assessed as reduction in cell viability after 24 hrs by MTT reduction assay; type: cell-based
PANC-1 [16] = test: Induction of apoptosis in human PANC1 cells assessed as increase in cleaved PARP-1 level at 30 to 60 uM after 24 hrs by Western blot analysis; type: functional, cell-based
PANC-1 [17] = test: Reduction in p-RB at Ser795 protein level in human PANC1 cells at 30 to 60 uM after 24 hrs by Western blot analysis; type: functional, cell-based
[18] = biological target: Tyrosine-protein kinase receptor UFO (Homo sapiens) (UniProt P30530); test: Inhibition of AXL in human PANC1 cells assessed as reduction in HIF-1alpha expression at 1.5 to 3 uM after 24 hrs by Western blot analysis; type: cell-based; conditions: PANC-1
PANC-1 [19] = test: Cytotoxicity against human PANC1 cells assessed as reduction in cell viability at 10 to 100 uM after 24 hrs by MTT reduction assay in presence of GSH; type: functional, cell-based
[20] = Antiproliferative activity against human PANC1 cells assessed as reduction in colonies at 1.5 uM after 15 days by colony assay; type: functional, PANC-1; parameters: scale not given: the % may be the effect or the level left
PANC-1 [21] = test: Reduction in cyclin D1 protein level in human PANC1 cells at 1.5 to 3 uM after 24 hrs by Western blot analysis; type: functional, cell-based
PANC-1 [22] = test: Induction of apoptosis in human PANC1 cells assessed as increase in cleaved PARP-1 level at 1.5 to 3 uM after 24 hrs by Western blot analysis; type: functional, cell-based
[23] = Antiproliferative activity against human PANC1 cells assessed as reduction in colonies at 0.75 uM after 15 days by colony assay; type: functional, PANC-1; parameters: scale not given: the % may be the effect or the level left
PANC-1 [24] = test: Reduction in p-RB at Ser795 protein level in human PANC1 cells at 1.5 to 3 uM after 24 hrs by Western blot analysis; type: functional, cell-based
[25] = biological target: Tyrosine-protein kinase receptor UFO (Homo sapiens) (UniProt P30530); test: Inhibition of AXL in human PANC1 cells assessed as inhibition of ERK phosphorylation at Thr202/Tyr 204 at 1.5 to 3 uM after 24 hrs by Western blot analysis; type: cell-based; conditions: PANC-1
PANC-1 [26] = test: Reduction in c-Myc protein level in human PANC1 cells at 1.5 to 3 uM after 24 hrs by Western blot analysis; type: functional, cell-based
PANC-1 [27] = test: Induction of apoptosis in human PANC1 cells assessed as reduction in pro-caspase-3 level at 1.5 to 3 uM after 24 hrs by Western blot analysis; type: functional, cell-based
PANC-1 [28] = test: Induction of apoptosis in human PANC1 cells assessed as increase in BAX/BCL-2 ratio at 1.5 to 3 uM after 24 hrs by Western blot analysis; type: functional, cell-based
[29] = biological target: Tyrosine-protein kinase receptor UFO (Homo sapiens) (UniProt P30530); test: Inhibition of AXL in human PANC1 cells assessed as reduction in VEGF level at 1.5 to 3 uM after 24 hrs by Western blot analysis; type: cell-based; conditions: PANC-1
PANC-1 [30] = test: Reduction in AXL protein level in human PANC1 cells at 1.5 to 3 uM after 24 hrs by Western blot analysis; type: functional, cell-based
PANC-1 [31] = test: Induction of intracellular ROS production in human PANC1 cells at 25 to 100 uM after 1 hr using DCFH-DA by flow cytometry; type: functional, cell-based

**Q.** Which results are given for O=C1C=CCC(/C=C/c2ccccc2)N1 (configuration not stated)?
**A.** IC50 [1]: > 100 µM; Activity [2]: Not Active

**Q.** For O=C1C=CCC(/C=C/c2ccccc2)N1C(=O)/C=C/c1ccccc1 (configuration not stated), which IC50 [1] is on record?
**A.** 16.3 µM

**Q.** With C=CC(=O)N1C(=O)C=CCC1/C=C/c1ccccc1 (configuration not stated) as the molecule, how does the IC50 [1] read?
**A.** 8.1 µM

**Q.** Which results are given for O=C1C=CC[C@H](/C=C/c2ccccc2)O1 [GONIOTHALAMIN]?
**A.** IC50 [3]: 65 µM; Activity (PANC-1 [4]): Active; selectivity ratio [5]: 0.44; Activity [6]: 50%; Activity (PANC-1 [7]): Active; Activity (PANC-1 [8]): Active; Activity [9]: 70%; Activity (PANC-1 [10]): inactive; Activity (PANC-1 [11]): Active; Activity (PANC-1 [12]): Active; IC50 [1]: 65 µM; Activity (PANC-1 [13]): Dose-dependent effect; Activity (PANC-1 [14]): Active; Activity [15]: Active; IC50 (HaCaT): 28.6 µM; Activity (PANC-1 [16]): Active; Activity (PANC-1 [17]): Active; Activity [2]: Active

**Q.** For CC(=O)N1C(=O)C=CCC1/C=C/c1ccccc1 (configuration not stated), which IC50 [1] is on record?
**A.** 42.3 µM

**Q.** What about the Activity (PANC-1 [13]) of the same molecule?
**A.** Dose-dependent effect

**Q.** What does the source list for COc1cc(/C=C/C(=O)N2CCC=CC2=O)cc(OC)c1OC [PIPLARTINE]?
**A.** selectivity ratio [5]: 5; IC50 [1]: 3.2 µM; IC50 (HaCaT): 16 µM

**Q.** With COc1cc(/C=C/C(=O)N2C(=O)C=CCC2/C=C/c2ccccc2)ccc1O (configuration not stated) as the molecule, how does the IC50 [1] read?
**A.** 15.6 µM

**Q.** With O=C1C=CCC(/C=C/c2ccccc2)N1C(=O)/C=C/c1ccc(O)c(O)c1 (configuration not stated) as the molecule, how does the IC50 [1] read?
**A.** 5.7 µM

**Q.** For COc1cc(/C=C/C(=O)N2C(=O)C=CCC2/C=C/c2ccccc2)cc(OC)c1OC (configuration not stated), which inhibition [18] is on record?
**A.** Active

**Q.** And the Activity (PANC-1 [19])?
**A.** Dose-dependent effect

**Q.** What about the IC50 [3] of the same molecule?
**A.** 2.7 µM

**Q.** What about the Activity [20] of the same molecule?
**A.** 90%

**Q.** What about the selectivity ratio [5] of the same molecule?
**A.** 3.14

**Q.** And the Activity (PANC-1 [21])?
**A.** Active

**Q.** And the Activity (PANC-1 [22])?
**A.** Active

**Q.** What about the Activity [23] of the same molecule?
**A.** 40%

**Q.** And the Activity (PANC-1 [24])?
**A.** Active

**Q.** And the IC50 [1]?
**A.** 2.7 µM

**Q.** And the inhibition [25]?
**A.** Active

**Q.** And the Activity (PANC-1 [26])?
**A.** Active

**Q.** And the Activity (PANC-1 [27])?
**A.** Active

**Q.** What about the IC50 (HaCaT) of the same molecule?
**A.** 8.5 µM

**Q.** And the Activity (PANC-1 [28])?
**A.** Active

**Q.** And the inhibition [29]?
**A.** Active

**Q.** And the Activity (PANC-1 [30])?
**A.** Active

**Q.** What about the Activity (PANC-1 [31]) of the same molecule?
**A.** Active

**Q.** And the Activity [2]?
**A.** Active

**Q.** Which IC50 [1] does the source give for O=C1C=CCC(/C=C/c2ccccc2)N1C(=O)CCc1ccc(O)c(O)c1 (configuration not stated) here?
**A.** 6.8 µM

**Q.** With C/C=C/C(=O)N1C(=O)C=CCC1/C=C/c1ccccc1 (configuration not stated) as the molecule, how does the IC50 [1] read?
**A.** 4.2 µM

**Q.** For COC(=O)N1C(=O)C=CCC1/C=C/c1ccccc1 (configuration not stated), which IC50 [1] is on record?
**A.** 53.7 µM

**Q.** And the Activity (PANC-1 [13])?
**A.** Dose-dependent effect
